In PubChem BioAssay (NCI):
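Interpolation was linear, between the two tested concentrations surrounding the appropriate level; five concentrations were tested over 48 hours in 96-well plates. The concentration for 50% growth inhibition is given as GI50. TGI: concentration producing complete growth inhibition.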

What was measured:
Assay in all cases: NCI anticancer screen, dose series, 48 h
HOP-62 NSCLC = tested on: HOP-62 NSCLC
KM12 colon = tested on: KM12 colon
SF-295 CNS = tested on: SF-295 CNS
OVCAR-4 ovarian = tested on: OVCAR-4 ovarian
UACC-62 melanoma = tested on: UACC-62 melanoma
CAKI-1 renal = tested on: CAKI-1 renal
786-0 renal = tested on: 786-0 renal
A549 NSCLC = tested on: A549 NSCLC
MDA-MB-435 = tested on: MDA-MB-435
NCI/ADR-RES ovarian = tested on: NCI/ADR-RES ovarian

SMILES	TGI (HOP-62 NSCLC) [µM]	TGI (KM12 colon) [µM]	TGI (SF-295 CNS) [µM]	TGI (OVCAR-4 ovarian) [µM]	TGI (UACC-62 melanoma) [µM]	TGI (CAKI-1 renal) [µM]	TGI (786-0 renal) [µM]	TGI (A549 NSCLC) [µM]	GI50 (MDA-MB-435) [µM]	TGI (MDA-MB-435) [µM]	GI50 (HOP-62 NSCLC) [µM]	GI50 (KM12 colon) [µM]	GI50 (NCI/ADR-RES ovarian) [µM]	TGI (NCI/ADR-RES ovarian) [µM]	GI50 (SF-295 CNS) [µM]	GI50 (OVCAR-4 ovarian) [µM]	GI50 (UACC-62 melanoma) [µM]	GI50 (CAKI-1 renal) [µM]	GI50 (786-0 renal) [µM]	GI50 (A549 NSCLC) [µM]
COc1ccc(/C=C2\CCC(C)(CN(C)C)C2=O)cc1OC (centres undefined)	> 100	> 100	> 100	> 100	> 100	> 100	> 100	> 100												
O=C(CC1SC(=Nc2ccccc2Cl)NC1=O)Nc1ccc(Cl)cc1Cl (centres undefined)	> 100	> 100	> 100	> 100	> 100		> 100	> 100												
Cc1ccc(NC(=O)CC2C(=O)Nc3ccccc3S2(=O)=O)c(C)c1 (centres undefined)			50.2	41.2	50.5	35.9	40.3	36.8												
N#CC1=C(/N=C/c2ccccc2)Oc2c(ccc3ccccc23)C1c1ccccc1 (centres undefined)	> 100	> 100	> 100	> 100	> 100	> 53.7	> 100	> 100	0.227	0.573	0.646	0.46	0.285	1.05	0.357	0.698	0.653	0.31	0.546	0.95
O=c1[nH]cc(F)c(=O)n1C1OC(CO)C(O)C1O (centres undefined)	> 100	> 100	> 100	> 100		> 100	> 100	> 100												
O=C(O)/C=C/c1nc2ccccc2c(=O)o1		> 100	> 100	> 100	> 100		> 100	> 100												
CC(=O)NCc1cccc(C#Cc2cncnc2Nc2ccc(OCc3cccc(F)c3)c(Cl)c2)c1	> 25	> 25	> 25	> 25	> 25	> 23.7	> 25	> 25	8.41	> 25	> 25	11.1	7.76	> 25	8.02	12.9	9.87	2.04	10.7	6.47
COc1ccc(-c2nc(/C=C3\SC(=NCc4ccccc4)NC3=O)c3ccccn23)cc1	3	2.3	7.62	2.84	3.8	3.55	0.498	4.25			1.54	0.846	1.39	5.76	2.25	1.39	1.55	1.76	0.189	1.58
NC(=O)NNC(=O)NC12CC3CC(CC(C3)C1)C2	> 100	> 100	> 100	> 100	> 100	> 100	> 100	> 100												
NC(=O)c1csc(C2OC(COP(=O)(O)CP(=O)(O)OCC3OC(n4cnc5c(N)ncnc54)C(O)C3O)C(O)C2O)n1 (centres undefined)	> 100	> 100	> 100	> 100	> 100	> 100	> 100	> 100												
O=S(=O)(c1cccc(N=C=S)c1)c1cccc(N=C=S)c1	26.5	61.5	39.4		36.2		29.5	> 100												
Cc1cc(C)nc(NS(=O)(=O)c2ccc(Nc3c4ccccc4nc4c(C(=O)Nc5ccc(S(=O)(=O)N=C(N)N)cc5)cccc34)cc2)n1	> 100	> 100		> 100	> 100	> 100	> 100	> 100												
O=C1Nc2ccccc2N=CC1NC(=O)C(c1ccccc1)c1ccccc1 (centres undefined)	> 100	> 100	> 100	> 100	> 100	> 100	> 100	> 100												
CC12CCC(=O)N1c1ccc([N+](=O)[O-])cc1N2 (centres undefined)	> 100	> 100	> 100	> 100	> 100		> 100	> 100												
COc1ccc(CCC2c3cc(OC)c(OC)cc3CCN2C)cc1OC (centres undefined)	> 100	> 100	> 100	> 100	> 100	> 100	> 100	> 100												
O=S(=O)(/C=C/C(=C/c1ccccc1)S(=O)(=O)c1ccccc1)c1ccccc1	3.5	5.42	3.05	3.07	3.85	2.88	3.15	4.65												
N#CCN1CCn2c1nsc2=S	> 100	> 100	> 100	> 100	> 100	> 100	> 100	> 100	> 100	> 100	> 100	88.9			> 100	> 100	> 100	> 100	> 100	> 100
O=C(Nc1cccc(-n2cc(-c3ccncc3)c(-c3cc(O)cc(Cl)c3)n2)c1)c1cc(C(F)(F)F)cc(C(F)(F)F)c1	> 100		7.15	> 100	22.4	> 100	21.1	> 100	3.16	> 100	9.82		4.55	> 100	2.37	8.53	3.79	3.67	3.12	2.62
COc1cc2c(cc1OCCCCN1CCN(C(=S)SCCC(C#N)(c3ccccc3)c3ccccc3)CC1)N=C[C@@H]1CCCN1C2=O	2.4	3.78		17.7	3.55	2.7	2.8		1.04	2.81	0.719	1.39	3.05	> 100		1.82	1.32	0.597	1.28	
